According to patent US6503928B2, “Arylpiperidine and aryl-1,2,5,6-tetrahydropyridine amide derivatives” (Wyeth, priority 1998, dated 2003):
Where a name gives a salt, the structure may show the parent alone.

Tests used:
human 5HT1A receptor [1] = target: T1, human 5HT1A receptor (Homo sapiens, UniProt P08908); assay: 5-HT1A receptor binding assay ([3H] 8-OH-DPAT displacement); conditions: displacement of [3H] 8-OH-DPAT, CHO cells stably transfected with human 5HT1A receptor
T1 construct: expressed in transfected cells; host or cells: CHO cells (stably transfected)
T1 sequence (P08908 1-422): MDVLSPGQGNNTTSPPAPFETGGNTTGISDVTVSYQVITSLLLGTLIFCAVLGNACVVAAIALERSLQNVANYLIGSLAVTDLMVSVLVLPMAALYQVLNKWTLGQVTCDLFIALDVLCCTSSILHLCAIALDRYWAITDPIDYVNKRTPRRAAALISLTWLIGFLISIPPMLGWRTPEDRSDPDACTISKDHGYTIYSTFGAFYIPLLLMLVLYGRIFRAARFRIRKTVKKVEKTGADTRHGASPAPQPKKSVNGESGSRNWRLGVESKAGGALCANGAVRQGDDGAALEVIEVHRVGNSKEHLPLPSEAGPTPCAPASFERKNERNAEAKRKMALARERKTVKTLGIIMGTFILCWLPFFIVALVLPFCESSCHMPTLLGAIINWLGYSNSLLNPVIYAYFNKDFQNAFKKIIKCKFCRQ
Method: 5-HT1A Receptor Binding Assay
High affinity for the serotonin 5-HT1A receptor was established by testing the compound's ability to displace [^3H] 8-OH-DPAT bindino in CHO cells stably transfected with human 5HT1A receptor. Stably transfected CHO cells are grown in DMEM containing 10% heat inactivated FBS and non-essential amino acids. Cells are scraped off the plate, transferred to centrifuge tubes, and washed twice by centrifugation (2000 rpm for 10 min., 4° C.) in buffer (50 mM Tris pH 7.5). The resulting pellets are aliquoted and placed at −80° C. On the day of assay, the cells are thawed on ice and resuspended in buffer. The binding assay is performed in a 96 well microtiter plate in a total volume of 250 μL. Non-specific binding is determined in the presence of […] 5-HT, final ligand concentration is 1.5 nM. Following a 30 minute incubation at room temperature, the reaction is terminated by the addition of ice cold buffer and rapid filtration through a GF/B filter presoaked for 30 minutes in 0.5% PEI. Compounds are initially tested in a single point assay to determine percent inhibition at […], and Ki values are determined for the active compounds.

human 5HT1A receptor [2] = target: T1, human 5HT1A receptor; assay: 5-HT1A receptor intrinsic activity assay (cAMP); type: cell-based; conditions: for IC50: antagonist mode: reversal of agonist-induced activity, antagonist preincubated 20 minutes before agonist and forskolin; for EC50: agonist mode: reversal of forskolin-stimulated cAMP in CHO cells transfected with human 5-HT1A
Method: 5-HT1A Receptor Intrinsic Activity Assay
The intrinsic activity of compounds of the present invention was established by testing the claimed compounds ability to reverse the stimulation of cyclic adenosinemonophosphate (cAMP) in CHO cells stably transfected with the human 5-HT1A receptor.
Stably transfected CHO cells were grown in DMEM containing 10% heat inactivated FBS and non-essential amino acids. The cells are plated at a density of […] cells per well in a 24 well plate and incubated for 2 days in a CO2 incubator. On the second day, the media is replaced with 0.5 mL treatment buffer (DMEM+25 mM HEPES, 5 mM theophylline, 10 μM pargyline) and incubated for 10 minutes at 37° C. Wells are treated with forskolin (1 μM final concentration) followed immediately by the test compound (0.1 and 1 μM for initial screen) and incubated for an additional 10 minutes at 37° C. The reaction is terminated by removal of the media and addition of 0.5 mL ice cold assay buffer (supplied in the RIA kit). Plates are stored at −20° C. prior to assessment of cAMP formation by RIA. EC50 values are determined for the active test compounds. Compounds shown to have no agonist activities (Emax=0%) are further analyzed for their ability to reverse agonist-induced activity. In separate experiments, 6 concentrations of antagonist are preincubated for 20 minutes prior to the addition of agonist and forskolin. Cells are harvested as described above. The cAMP kit is supplied by Amersham and the RIA is performed as per kit instructions, and calculations of IC50 performed by GraphPad Prism.

[3] = agonist mode: reversal of forskolin-stimulated cAMP, Emax=0% means no agonist activity

| Compound | Ki (human 5HT1A receptor [1]) | melting point | other results |
| --- | --- | --- | --- |
| COc1ccccc1C1CCN(C[C@@H](Cc2cccnc2)NC(=O)C2(C)CCCCC2)CC1 [Example 7, 1-Methyl-cyclohexanecarboxylic Acid {(1R)-2-[4-(2-Methoxy-phenyl)-piperidin-1-yl]-1-pyridin-3-ylmethyl-ethyl}-amide] | 0.74 nM |  | Emax (human 5HT1A receptor [2]; [3]): 0%; IC50 (human 5HT1A receptor [2]): 38 nM |
| COc1ccccc1C1CCN(C[C@@H](Cc2cccnc2)N(C)C(=O)C2CCCCC2)CC1 (as salt: hydrochloride) [Example 9, Cyclohexanecarboxylic Acids {(1R)-2-[4-(2-Methoxy-phenyl)-piperidin-1-yl]-1-pyridin-3-ylmethyl-ethyl}-methyl-amide] |  | 148 to 150 °C |  |
| COc1ccccc1C1CCN(C[C@@H](Cc2ccccc2)NC(=O)C2CCCCC2)CC1 (as salt: fumarate) [Example 6, (R)-Cyclohexanecarboxylic Acid {1-Benzyl-2-[4-(2-methoxy-phenyl)-piperidin-1-yl]-ethyl}-amide] |  | 103 to 105 °C |  |
| COc1ccccc1C1CCN(C[C@@H](Cc2ccncc2)NC(=O)C2(C)CCCCC2)CC1 (as salt: fumarate) [Example 8, 1-Methyl-cyclohexanecarboxylic Acid {(1R)-2-[4-(2-Methoxy-phenyl)-piperidin-1-yl]-1-pyridin-4-ylmethyl-ethyl}-amide] |  | 108 to 110 °C |  |
| COc1ccccc1C1=CCN(C[C@@H](Cc2ccccc2)NC(=O)C2(C)CCCCC2)CC1 [Example 4, (R)-1-Methyl-cyclohexanecarboxylic Acid {1-Benzyl-2-[4-(2-methoxy-phenyl)-3,6-dihydro-2H-pyridin-1-yl]-ethyl}-amide] | 0.25 nM |  | EC50 (human 5HT1A receptor [2]): 4.3 nM |
| COc1ccccc1C1=CCN(C[C@@H](Cc2ccccc2)NC(=O)C2CCCCC2)CC1 (as salt: fumarate) [Example 3, (R)-Cyclohexanecarboxylic Acid {1-Benzyl-2-[4-(2-methoxy-phenyl)-3,6-dihydro-2H-pyridin-1-yl]-ethyl}-amide] |  | 146 to 148 °C |  |
| COc1ccccc1C1=CCN(C[C@@H](Cc2ccccc2)NC(=O)C2CCCCC2)CC1 [Example 3, (R)-Cyclohexanecarboxylic Acid {1-Benzyl-2-[4-(2-methoxy-phenyl)-3,6-dihydro-2H-pyridin-1-yl]-ethyl}-amide] | 0.22 nM |  | EC50 (human 5HT1A receptor [2]): 3.4 nM |
| COc1ccc(F)cc1C1=CCN(C[C@@H](Cc2ccccc2)N(C)C(=O)C2(C)CCCCC2)CC1 [Example 2, 1-Methyl-cyclohexanecarboxylic Acid {(1R)-1-Benzyl-2-[4-(5-fluoro-2-methoxy-phenyl)-1,2,5,6-tetrahydro-4H-pyridin-1-yl]-ethyl}-methyl-amide] | 4.9 nM |  | cAMP Emax (human 5HT1A receptor [2]; [3]): 0% |
| COc1ccccc1C1=CCN(C[C@@H](Cc2ccccc2)NC(=O)C2(C)CCCCC2)CC1 (as salt: fumarate) [Example 4, (R)-1-Methyl-cyclohexanecarboxylic Acid {1-Benzyl-2-[4-(2-methoxy-phenyl)-3,6-dihydro-2H-pyridin-1-yl]-ethyl}-amide] |  | 102 to 104 °C |  |
| COc1ccccc1C1CCN(C[C@@H](Cc2ccccc2)NC(=O)C2(C)CCCCC2)CC1 (as salt: fumarate) [Example 5, (R)-1-Methyl-cyclohexanecarboxylic Acid {1-Benzyl-2-[4-(2-methoxy-phenyl)-piperidin-1-yl]-ethyl}-amide] |  | 77 to 79 °C |  |
| COc1ccccc1C1CCN(C[C@@H](Cc2cccnc2)NC(=O)C2(C)CCCCC2)CC1 (as salt: fumarate) [Example 7, 1-Methyl-cyclohexanecarboxylic Acid {(1R)-2-[4-(2-Methoxy-phenyl)-piperidin-1-yl]-1-pyridin-3-ylmethyl-ethyl}-amide] |  | 99 to 101 °C |  |
| COc1ccc(F)cc1C1CCN(C[C@@H](Cc2ccccc2)N(C)C(=O)C2(C)CCCCC2)CC1 (as salt: fumarate) [Example 1, 1-Methyl-cyclohexanecarboxylic Acid {(1R)-1-Benzyl-2-[4-(5-fluoro-2-methoxy-phenyl)-piperidine-1-yl]-ethyl}-methyl-amide] |  | 160 to 165 °C |  |
| COc1ccccc1C1CCN(C[C@@H](Cc2ccncc2)NC(=O)C2(C)CCCCC2)CC1 [Example 8, 1-Methyl-cyclohexanecarboxylic Acid {(1R)-2-[4-(2-Methoxy-phenyl)-piperidin-1-yl]-1-pyridin-4-ylmethyl-ethyl}-amide] | 0.63 nM |  | Emax (human 5HT1A receptor [2]; [3]): 0% |
| COc1ccccc1C1CCN(C[C@@H](Cc2ccncc2)N(C)C(=O)C2CCCCC2)CC1 (as salt: hydrochloride) [Example 10, Cyclohexanecarboxylic acid {(1R)-2-[4-(2-Methoxy-phenyl)-piperidin-1-yl]-1-pyridin-4-ylmethyl-ethyl}-methyl-amide] |  | 158 to 160 °C |  |
| COc1ccccc1C1CCN(C[C@@H](Cc2cccnc2)N(C)C(=O)C2CCCCC2)CC1 [Example 9, Cyclohexanecarboxylic Acids {(1R)-2-[4-(2-Methoxy-phenyl)-piperidin-1-yl]-1-pyridin-3-ylmethyl-ethyl}-methyl-amide] | 1.77 nM |  | Emax (human 5HT1A receptor [2]; [3]): 0% |
| COc1ccccc1C1CCN(C[C@@H](Cc2ccncc2)N(C)C(=O)C2CCCCC2)CC1 [Example 10, Cyclohexanecarboxylic acid {(1R)-2-[4-(2-Methoxy-phenyl)-piperidin-1-yl]-1-pyridin-4-ylmethyl-ethyl}-methyl-amide] | 1.18 nM |  | Emax (human 5HT1A receptor [2]; [3]): 0%; IC50 (human 5HT1A receptor [2]): 19.3 nM |
